Values belong to the compound of their own block, whether it stands above or below them.
What was measured:
LNCaP xenograft tumors = experiment: Therapy study in LNCaP xenograft mice; type: in vivo, mouse; conditions: for tumors not detectable (<0.5 mm^3): 75 d post injection
Experimental: (§1) Inoculation of mice with xenografts. All animal studies were approved by the Institutional Animal Care and Use Committee of Weill Cornell Medicine and were undertaken in accordance with the guidelines set forth by the USPHS Policy on Humane Care and Use of Laboratory Animals. Animals were housed under standard conditions in approved facilities with 12 h light/dark cycles. Food and water was provided ad libitum throughout the course of the studies. Male BALB/c athymic nu/nu mice were purchased from the Jackson Laboratory. For inoculation in mice, LNCaP cells were suspended at 4×10^7 cells/mL in a 1:1 mixture of PBS:Matrigel (BD Biosciences). Each mouse was injected in the left flank with 0.25 mL of the cell suspension. Biodistributions were conducted when tumors were in the range 200-800 mm^3, while therapy studies were initiated when tumors were in the range 50-900 mm^3.
Therapy study in LNCaP xenograft mice. LNCaP xenograft tumor-bearing mice were randomly assigned to 5 groups (7 mice per group). […] The fourth group was injected with the same volume of vehicle. The fifth group was injected with 133 kBq ^225Ac-DOTA-Lys-IPBA. Tumor dimensions were measured and recorded three times weekly with digital calipers, and tumor volumes were calculated using the modified ellipsoid equation, V=0.5*length*width*width. […] Body weight was measured with a digital balance twice weekly, and mice were monitored for signs of distress. The mice were photographed weekly to visually confirm changes in tumor volume.

[1] = Biodistribution / in vivo stability of [225Ac(macropa)]+ compared with 225Ac(NO3)3 and [225Ac(DOTA)]- in C57BL/6 mice; conditions: for accumulation of 225Ac in organs / blood clearance and excretion: tail vein, 15 min, 1 h, 5 h
Experimental: C57BL/6 mice were injected via tail vein with 10-50 kBq of each radiometal complex and were sacrificed after 15 min, 1 h, or 5 h.

[2] = system: LNCaP xenograft tumor-bearing mice; experiment: PET/CT imaging of 66Ga-RPS ligands in LNCaP xenograft mice; type: in vivo, mouse; conditions: 66Ga PET/CT; for maximum uptake in the tumor (image-derived): over 1, 3, 6 and 24 h post injection
Experimental: as §1, with “xenografts:” for “xenografts.”, “Hairless male” for “Male BALB/c athymic”, “The mice were imaged when the tumors reached approximately 200-400 mm^3, while biodistributions” for “Biodistributions”, “100-400” for “200-800 mm^3, while therapy studies were initiated when tumors were in the range 50-900”
Imaging of ^66Ga-RPS ligands in LNCaP xenograft mice: LNCaP xenograft tumor-bearing mice (2-3 per compound) injected intravenously with a bolus injection of 0.56-5.4 MBq (15-145 μCi) of the ^66Ga-labeled ligand. The specific activity of the tracers was in the range 14.8-47 MBq/μmol (0.4-1.27 mCi/μmol). The mice were imaged using PET/CT (Inveon™; Siemens Medical Solutions, Inc.) at 1, 3, 6 and 24 h post-injection following inhalation anesthetization with isoflurane. Total acquisition time was 30 min for the 1 h, 3 h and 6 h images, and 60 min for 24 h time point. A CT scan was obtained immediately before the acquisition for both anatomical co-registration and attenuation correction. Images were reconstructed using the Inveon™ software supplied by the vendor. Image-derived tumor and kidney uptake was estimated by comparison to a 10% injected dose […] standard introduced into the imaging field of view. The standard was prepared by dilution of 10% of the injected activity to 1 mL with saline. Volumes of interest (VOIs) were drawn with the aid of the CT and confirmed by PET. The contents of the VOIs were integrated and the calculated counts were converted to […] by direct comparison to the aforementioned standard following correction for activity injected.

[3] = system: LNCaP xenograft tumor-bearing mice; experiment: Biodistribution studies of 177Lu-labeled ligands in LNCaP xenograft mice; type: in vivo, mouse
Experimental: as §1, with “xenografts:” for “xenografts.”, “Hairless male” for “Male BALB/c athymic”, “The mice were imaged when the tumors reached approximately 200-400 mm^3, while biodistributions” for “Biodistributions”, “100-400” for “200-800 mm^3, while therapy studies were initiated when tumors were in the range 50-900”
Biodistribution studies of 177Lu-labeled ligands in LNCaP xenograft mice: LNCaP xenograft tumor-bearing mice (5 per time point per compound) were injected intravenously with a bolus injection of 348-851 kBq (9.4-23 μCi) and 37-50 ng ([…]) of each ligand. The mice were sacrificed at 4, 24 and 96 h post injection. A blood sample was removed, and a full biodistribution study was conducted on the following organs (with contents): heart, lungs, liver, small intestine, large intestine, stomach, spleen, pancreas, kidneys, muscle, bone and tumor. Tissues were weighed and counted on a 2470 Wizard^2 Automatic Gamma Counter (Perkin Elmer). Counts were corrected for decay and for activity injected, and tissue uptake was expressed as percent injected dose per gram (% ID/g). Standard error measurement was calculated for each data point.

[4] = system: LNCaP xenograft tumor-bearing mice; experiment: Dosimetry (dose integrals from time-activity curves of 177Lu-labeled ligands); type: in vivo, mouse; conditions: over 96 h
Experimental: Dosimetry: The dosimetry was calculated assuming a linear interpolation between the three time points. The average injected dose per organ was calculated by using the average of the activity and organ weights of the mice at that time point. Intermediate time points at every 4 hours were generated using the linear approximation and all time points were corrected for decay during the time interval between points. These curves were integrated using a trapezoidal approximation and the sum used to determine the residence time.

Structure (SMILES): O=C(O)CC[C@H](NC(=O)N[C@@H](CCCCNC(=O)Nc1cccc(-c2cn(CCOCCOCCOCCC(=O)N[C@@H](CCCCNC(=S)Nc3cc(CN4CCOCCOCCN(Cc5cccc(C(=O)[O-])n5)CCOCCOCC4)nc(C(=O)[O-])c3)C(=O)NCCOCCOCCOCCOCCOCCOCCOCCOCCC(=O)N[C@@H](CCCCNC(=O)CCCc3ccc(I)cc3)C(=O)O)nn2)c1)C(=O)O)C(=O)O.[225Ac+3] [225Ac-RPS-074]
mice surviving the first 21 d (LNCaP xenograft tumors; 37 kBq group): 100%
tumor growth rate (LNCaP xenograft tumors; 37 kBq treatment group): appeared to grow at a similar rate to the untreated tumors
tumors not detectable (<0.5 mm^3) (LNCaP xenograft tumors; 74 kBq group, 1/7): 14%
tumor volumes that began to increase again (LNCaP xenograft tumors; 74 kBq group, after 42 d, 6/7): 86%
time over which tumor volume decreased (LNCaP xenograft tumors; 74 kBq group, post injection): ≤ 42 days
mice with tumor volume less than 1 mm^3 (LNCaP xenograft tumors; 74 kBq group, up to 42 days p.i., 5/7): 71%
antitumor effect (LNCaP xenograft tumors; 138 kBq and 74 kBq): significant antitumor effect
survival of the 75 d study (LNCaP xenograft tumors; 138 kBq treatment group): Every mouse in the 138 kBq treatment group survived
tumors not detectable (<0.5 mm^3) (LNCaP xenograft tumors; 138 kBq treatment group, 6/7): 86%

Structure (SMILES): O=[N+]([O-])[O-].O=[N+]([O-])[O-].O=[N+]([O-])[O-].[225Ac] [225Ac(NO3)3, reference compound]
accumulation of 225Ac in organs [1]: large accumulation in the liver and spleen
blood clearance and excretion [1]: slow blood clearance and excretion

maximum kidney uptake (image-derived) [2]: 0.4±0.1 % ID/cm^3
time of maximum uptake in the tumor [2]: 1 h
kidney uptake (image-derived) ([2]; 24 h post injection): 0.1±0.1 % ID/cm^3
maximum uptake in the tumor (image-derived) [2]: 3.1±0.4 % ID/cm^3
Structure (SMILES): O=C(O)CCC(NC(=O)NC(CCCCNC(=O)C(Cc1ccc2ccccc2c1)NC(=O)C1CCC(CNC(=O)CN2CCN(CC(=O)O)CCN(CC(=O)O)CCN(CC(=O)O)CC2)CC1)C(=O)O)C(=O)O (centres unmarked) [66Ga-PSMA-617, metal not drawn, reference compound]

Structure (SMILES): O=C([O-])CN1CCN(CC(=O)[O-])CCN(CC(=O)O)C(Cc2ccc(NC(=S)NCCCC[C@H](NC(=O)CCOCCOCCOCCOCCn3cc(-c4cccc(NC(=O)NCCCC[C@H](NC(=O)N[C@@H](CCC(=O)O)C(=O)O)C(=O)O)c4)nn3)C(=O)N[C@@H](CCCCNC(=O)Cc3ccc(I)cc3)C(=O)O)cc2)CN(CC(=O)[O-])CC1.[66Ga+3] (some centres unmarked) [66Ga-RPS-061]
kidney uptake (image-derived) ([2]; 1 h post injection): 10.5±2.1 % ID/cm^3
tumor uptake (image-derived) ([2]; 24 h post injection): 6.1±1.1 % ID/cm^3

Structure (SMILES): O=C([O-])c1cccc(CN2CCOCCOCCN(Cc3cccc(C(=O)[O-])n3)CCOCCOCC2)n1.[225Ac+3] [[225Ac(macropa)]+]
in vivo stability of the complex [1]: highly stable in vivo
accumulation of 225Ac in organs [1]: did not accumulate in any organ
blood clearance and excretion [1]: rapidly cleared from mice

Structure (SMILES): O=C([O-])CN1CCN(CC(=O)[O-])CCN(CC(=O)[O-])CCN(CC(=O)[O-])CC1.[225Ac+3] [[225Ac(DOTA)]-, reference compound]
blood clearance and excretion [1]: clear more rapidly through the urine

Structure (SMILES): O=C([O-])CN1CCN(CC(=O)[O-])CCN(CC(=O)O)C(Cc2ccc(NC(=S)N[C@@H](CCCCNC(=O)CCCc3ccc(I)cc3)C(=O)O)cc2)CN(CC(=O)[O-])CC1.[225Ac+3] (some centres unmarked) [225Ac-DOTA-Lys-IPBA]
mice surviving the first 21 d (LNCaP xenograft tumors; 133 kBq positive control group): 100%

time of maximum uptake in the tumor [2]: 3 h
tumor uptake (image-derived) ([2]; 24 h post injection): 8.3±2.8 % ID/cm^3
maximum uptake in the tumor (image-derived) [2]: 9.7±2.0 % ID/cm^3
Structure (SMILES): O=C(O)CCC(NC(=O)NC(CCCCNC(=O)Nc1cccc(-c2cnnn2CC(=O)NC(CCCCNC(=S)Nc2ccc(CC3CN(CC(=O)O)CCN(CC(=O)O)CCN(CC(=O)O)CCN3CC(=O)O)cc2)C(=O)NC(CCCCNC(=O)Cc2ccc(I)cc2)C(=O)O)c1)C(=O)O)C(=O)O (centres unmarked) [66Ga-RPS-068, metal not drawn]

Structure (SMILES): O=C([O-])CN1CCN(CC(=O)[O-])CCN(CC(=O)O)C(Cc2ccc(NC(=S)NCCCC[C@H](NC(=O)CCOCCOCCOCCOCCOCCOCCn3cc(-c4cccc(NC(=O)NCCCC[C@H](NC(=O)N[C@@H](CCC(=O)O)C(=O)O)C(=O)O)c4)nn3)C(=O)N[C@@H](CCCCNC(=O)Cc3ccc(I)cc3)C(=O)O)cc2)CN(CC(=O)[O-])CC1.[66Ga+3] (some centres unmarked) [66Ga-RPS-069]
tumor uptake (image-derived) ([2]; 24 h post injection): 7.0±3.9 % ID/cm^3

Structure (SMILES): O=C(O)CC[C@H](NC(=O)N[C@@H](CCCCNC(=O)Nc1cccc(-c2cn(CCOCCOCCOCCOCCC(=O)N[C@@H](CCCCNC(=S)Nc3ccc(CC4CN(CC(=O)O)CCN(CC(=O)O)CCN(CC(=O)O)CCN4CC(=O)O)cc3)C(=O)N[C@@H](CCCCNC(=O)Cc3ccc(I)cc3)C(=O)O)nn2)c1)C(=O)O)C(=O)O (stereo partly drawn) [RPS-061, (((1S)-1-carboxy-5-(3-(3-(1-((17S,20S)-20-carboxy-27-(4-iodophenyl)-15,18,26-trioxo-17-(4-(3-(4-((1,4,7,10-tetrakis(carboxymethyl)-1,4,7,10-tetraazacyclododecan-2-yl)methyl)phenyl)thioureido)butyl)-3,6,9,12-tetraoxa-16,19,25-triazaheptacosyl)-1H-1,2,3-triazol-4-yl)phenyl)ureido)pentyl)carbamoyl)-L-glutamic acid]
Max. Tumor Uptake ([3]; corresponding 177Lu-labeled compound, 4 h p.i. (a)): 20.4 ± 3.1 % ID/g

Structure (SMILES): O=C([O-])CN1CCN(CC(=O)[O-])CCN(CC(=O)O)C(Cc2ccc(NC(=S)NCCCC[C@H](NC(=O)CCOCCOCCOCCOCCOCCOCCn3cc(-c4cccc(NC(=O)NCCCC[C@H](NC(=O)N[C@@H](CCC(=O)O)C(=O)O)C(=O)O)c4)nn3)C(=O)N[C@@H](CCCCNC(=O)Cc3ccc(I)cc3)C(=O)O)cc2)CN(CC(=O)[O-])CC1.[177Lu+3] (some centres unmarked) [177Lu-RPS-069]
blood activity (comparison within the series) ([3]; 4 h p.i.): lower blood retention
tumor uptake ([3]; 4 h p.i.): 17.0±2.1 % ID/g
tumor uptake ([3]; 96 h p.i.): 9.8±0.8 % ID/g
dose integral in the tumor relative to 177Lu-PSMA-617 [4]: at least two times higher

Structure (SMILES): O=C([O-])CN1CCN(CC(=O)[O-])CCN(CC(=O)O)C(Cc2ccc(NC(=S)NCCCC[C@H](NC(=O)CCOCCOCCOCCOCCOCCOCCOCCOCCn3cc(-c4cccc(NC(=O)NCCCC[C@H](NC(=O)N[C@@H](CCC(=O)O)C(=O)O)C(=O)O)c4)nn3)C(=O)N[C@@H](CCCCNC(=O)Cc3ccc(I)cc3)C(=O)O)cc2)CN(CC(=O)[O-])CC1.[66Ga+3] (some centres unmarked) [66Ga-RPS-066]
time of maximum uptake in the tumor [2]: 3 h
kidney uptake (image-derived) ([2]; 24 h post injection): 0.2±0.1 % ID/cm^3
tumor uptake (image-derived) ([2]; 24 h post injection): 5.5±0.4 % ID/cm^3
maximum uptake in the tumor (image-derived) [2]: 7.8±0.7 % ID/cm^3

Structure (SMILES): O=C([O-])CN1CCN(CC(=O)[O-])CCN(CC(=O)O)C(Cc2ccc(NC(=S)NCCCC[C@H](NC(=O)CCOCCOCCOCCn3cc(-c4cccc(NC(=O)NCCCC[C@H](NC(=O)N[C@@H](CCC(=O)O)C(=O)O)C(=O)O)c4)nn3)C(=O)N[C@@H](CCCCNC(=O)Cc3ccc(I)cc3)C(=O)O)cc2)CN(CC(=O)[O-])CC1.[66Ga+3] (some centres unmarked) [66Ga-RPS-063]
time of maximum uptake in the tumor [2]: 6 h
tumor uptake (image-derived) ([2]; 24 h post injection): 7.9±3.0 % ID/cm^3
maximum uptake in the tumor (image-derived) [2]: 9.5±2.4 % ID/cm^3
